Data set [1] can be described thus: Aqueous solubility of dronedarone hydrochloride. The format is physicochemical. From the text: As indicated above, the above β-cyclodextrin derivatives, when they are used in combination with an appropriate buffer, for example a phosphate buffer, in the compositions of the invention, make it possible in particular to increase the aqueous solubility of dronedarone or of its pharmaceutically acceptable salts.

Another data set deals with male rats. Description: Local tolerance in animals (intravenous injection in caudal vein). The format is in vivo. As to conditions: several days. The procedure:
Tests were carried out for the purpose of evaluating the local tolerance of various aqueous compositions comprising dronedarone hydrochloride or only the corresponding vehicle as placebo.
To this end, a dose of one the aqueous compositions hereinbelow was administered daily for 5 days via the intravenous route to batches of 5 male rats. The injection was made in the caudal vein, preferably in the distal region, then in the median region and finally in the proximal region. The animals were then sacrificed on the 8th day and the tails were removed for the purpose of possible microscopic examination.

Data set [2] can be described thus: Surface tension in aqueous solution (surfactant properties). As to conditions: with or without phosphate buffer. The format is physicochemical. How it is done:
This surfactant nature moreover proves to be as powerful in the presence as in the absence of a phosphate buffer and can be held as being partially responsible for a self-aggregation of dronedarone molecules in aqueous solution. In fact, this supramolecular organization in solution is due to the formation of dimers positioned head to tail and stacked in superimposed layers. These dimers, when they are administered by injection, lead to rupturing of the cell membrane and, consequently, to the appearance of inflammation at the injection site. Generally, these surfactant properties of dronedarone can be regarded as responsible for poor tolerance of the composition in which they are present.

The source of these data is US6939865B2, “Pharmaceutical dronedarone composition for parenteral administration” (Sanofi-Aventis, priority 2000, dated 2005).

As a reminder, the solubility is the dissolved amount per volume that the medium holds.

Counter-ions that a name gives are not always drawn. Like-named read-outs stand apart in the source and are kept apart here.

As for `CCCCc1oc2ccc(NS(C)(=O)=O)cc2c1C(=O)c1ccc(OCCCN(CCCC)CCCC)cc1` [dronedarone hydrochloride, 2-butyl-3-(4-[[3-(dibutylamino)propoxy]]benzoyl)-5-(methanesulphonamido)benzofuran], the solubility in data set [1] (aqueous medium, aqueous buffer, ambient temperature, pH=4.85, read-out: solubility in an aqueous medium) was 500 µg/mL; in data set [1] (mono-sodium phosphate buffer (NaH2PO4), aqueous buffer, ambient temperature, pH range from 1.5 to 5, read-out: solubility in the presence of a mono-sodium phosphate buffer (NaH2PO4)) it was 2000 to 2250 µg/mL; in data set [1] (phosphate buffer with hydroxypropyl-β-cyclodextrin, aqueous with cosolvent or surfactant or cyclodextrin, 100 mmolar phosphate buffer and 5% of hydroxypropyl-β-cyclodextrin, read-out: solubility) it was ~6500 µg/mL. The figures for the “solubility in an aqueous medium” value in data set [1] (pH range from 1.5 to 5) and in data set [1] (pH values of greater than 5.5) were “virtually constant” and “virtually negligible”, respectively. Also, the “solubility in the presence of a mono-sodium phosphate buffer (NaH2PO4)” value in data set [1] (pH=5.5) is listed as “virtually zero”. In addition, the “tolerance at the injection site” value in the data set on male rats (aqueous formulation 1.065 mg/ml dronedarone hydrochloride with hydroxypropyl-β-cyclodextrin) is “marked intolerance”. The local tolerance result with male rats (aqueous formulation 1.065 mg/ml dronedarone hydrochloride with phosphate buffer) was “poor local tolerance”.

On to `CCCCc1oc2ccc(NS(C)(=O)=O)cc2c1C(=O)c1ccc(OCCCN(CCCC)CCCC)cc1` [dronedarone, 2-butyl-3-(4-[[3-(dibutylamino)propoxy]]benzoyl)-5-(methanesulphonamido)benzofuran], for which the “effect on surface tension” value in data set [2] is given as “marked decrease”.
